Source: the NIST ThermoML archive (doi:10.1021/je050054u)

Conditions: Liquid, Closed cell (Static) method

CCF [fluoroethane]
Conditions | vapor or sublimation pressure [kPa]
235.69 K | 101.5
235.74 K | 101.7
235.79 K | 101.9
235.84 K | 102.2
235.89 K | 102.4
235.94 K | 102.6
236 K | 102.9
236.09 K | 103.4
237.11 K | 108.3
238.07 K | 113.3
240.11 K | 124.1
242.12 K | 135.4
244.1 K | 147.6
245.09 K | 153.8
247.09 K | 167.1
249.1 K | 181.5
251.07 K | 196.3
253.11 K | 212.7
255.11 K | 229.7
257.13 K | 247.8
259.11 K | 267.6
261.11 K | 288
263.12 K | 309.5
264.11 K | 320.7
265.1 K | 332.4
266.12 K | 344.5
267.13 K | 356.6
268.13 K | 369.1
269.13 K | 382
270.13 K | 395.3
271.13 K | 408.8
272.15 K | 422.9
273.12 K | 436.7
274.11 K | 451.2
275.11 K | 466
276.14 K | 481.8
277.14 K | 497.5
278.17 K | 513.9
279.14 K | 529.9
280.13 K | 546.6
281.13 K | 563.9
282.16 K | 581.9
283.14 K | 599.6
285.18 K | 636.5
287.13 K | 675.1
288.13 K | 695.2
290.14 K | 737.5
292.01 K | 777.9
294.03 K | 824.2
296.04 K | 871.8
298.07 K | 921.9
300.05 K | 972.9
302 K | 1024.9
304.03 K | 1081.4
306.12 K | 1141.9
308.08 K | 1200.9
310.32 K | 1270.6
312.19 K | 1330.5
314.18 K | 1398.1
316.32 K | 1472.8
316.33 K | 1473.6
318.17 K | 1539.8
320.14 K | 1613.2
322.13 K | 1690.2
324.12 K | 1770.2
326.11 K | 1852.2
328.13 K | 1938.9
330.15 K | 2027
332.15 K | 2119.3
333.15 K | 2167.4
334.16 K | 2215.1
335.15 K | 2263.9
336.15 K | 2313.2
337.15 K | 2363.2
338.16 K | 2414.5
339.15 K | 2465.8
340.16 K | 2518.5
341.15 K | 2572
342.15 K | 2626.3
343.15 K | 2681.7
344.14 K | 2737.4
345.15 K | 2794.3
346.15 K | 2852.2
347.15 K | 2910.8
348.15 K | 2970.7
349.15 K | 3030.8
350.15 K | 3092.2
351.15 K | 3154.5
352.15 K | 3218
353.14 K | 3282
354.15 K | 3347.6
355.15 K | 3414.2
356.15 K | 3481.2
357.14 K | 3549.5
358.14 K | 3619.1
359.14 K | 3689.1
360.15 K | 3761.3
361.15 K | 3834
362.16 K | 3908
363.14 K | 3982.2
364.14 K | 4058.4
364.15 K | 4060.2
365.14 K | 4138
366.15 K | 4216.8
367.15 K | 4295.8
368.16 K | 4376.8
369.14 K | 4460.1
370.14 K | 4543.5
371.14 K | 4627.6
372.14 K | 4713.9
